Test results: patent publication US20240299317A1, “Fenfluramine for Treatment of Conditions Associated with Spreading Depolarization” (ZOGENIX INTERNATIONAL LIMITED, priority 2021, published 2024)

Columns and labels:
[1] = tested on: spreading depolarization in mouse brain slices; assay: KCl-induced spreading depolarization threshold in mouse brain slices; assay type: cell-based; conditions: for KCl concentration necessary to initiate spreading depolarization (SD threshold): test compound alone in ACSF bath
Method: (§1) In brain slice studies normoxic SD is induced by briefly raising [K^+]o. An ischemic version of SD, the anoxic depolarization (AD), is induced by removing O2/glucose from the aCSF for about 10 min. Intrinsic optical signals (IOSs) represent change in the way tissue scatters light. Light transmittance (LT), essentially unscattered light, is imaged using a charge-coupled device (CCD) to measure second-by-second regional DLT during periods of 1 h or more. The front of the propagating SD or AD event is imaged as an elevated LT, caused by cell swelling. A negative voltage shift, the electrophysiological signature of SD, is simultaneously recorded extracellularly. Normoxic SD is typically the cortical occurrence in migraine, while an anoxic condition is more typical of ischemic attacks and stroke.
(§2) To determine the threshold for evoked spreading depolarization in mouse brain slices, mice (C57Bl6J, P30-50) were deeply anesthetized by ketamine/xylazine mix (i.p. 85 and […], respectively), cardiac perfused with cutting solution (110 mM N-Methyl-D-glucamine, 10 mM glucose, 6 mM magnesium sulfate, 3 mM KCl, 25 mM sodium bicarbonate, 1.25 mM sodium monophosphate, 0.2 mM calcium chloride, and 0.4 mM ascorbic acid equilibrated with 95% O2/5% CO2), and decapitated. The brain was rapidly extracted, cerebellum removed, forebrain hemisected, and 300 μm thick coronal slices were cut on a vibratome.
Slices were first incubated in the cutting solution at 37 C for 10 minutes and then transferred to artificial cerebrospinal fluid (“ACSF”: 126 mM sodium chloride, 10 mM glucose, 1 mM magnesium sulfate, 3 mM KCl, 25 mM sodium bicarbonate, 1.25 mM sodium monophosphate, 2 mM calcium chloride, and 0.4 mM ascorbic acid equilibrated with 95% O2/5% CO2).
(§3) In all in vitro experiments, a pair of slices were then transferred to a recording chamber continuously superfused with ACSF at […] 33-34° C. For pharmacological analysis, slices were pre-incubated in the recording chamber with test compound for at least for 20 minutes. Slow tissue depolarizations (SD) were detected by DC potential shift or imaging of intrinsic optical signals (IOS) in the brain slice. DC potential were recorded using glass pipette electrodes containing ACSF (2-3MO). Signals were amplified with a DC amplifier (MultiClamp 700B), digitized (Digidata 1550B) and analyzed with the Clampfit program ([…]). IOS were detected by acquiring images of brain slices with a CMOS camera (Hamamatsu ORCA). Images were acquired at 0.2-0.5 Hz and analyzed with imageJ software.
First, by incrementally elevating the KCl concentration of bath ACSF every 5 minutes (initial starting concentration of 6 mM, then elevated by +1 mM at 5-minute intervals). The KCl concentration that triggered the first SD was considered as the SD threshold. In experiments using the test drug (fenfluramine), the drug was added to the solution before the KCl challenge.

[2] = tested on: GABA spontaneous inhibitory postsynaptic currents; assay: GABA spontaneous inhibitory postsynaptic currents (sIPSCs); assay type: cell-based; conditions: compound alone
[3] = cited from earlier work
[4] = tested on: spreading depolarization in cortical slices; assay: Oxygen/glucose deprivation (OGD) model of spreading depolarization in brain slices; assay type: cell-based, mouse; conditions: for time to onset of spreading depolarization: treatment vs non-treatment
Method: as §1
as §2, with “vibratome. […]” for “vibratome.”
as §3, with “For pharmacological analysis, slices were pre-incubated in the recording chamber with test compound for at least for 20 minutes.” left out, “software. […]” for “software.”

[5] = target: Sig1 receptor [Sig1R]/binding immunoglobulin protein (BiP) (Homo sapiens, UniProt Q99720); conditions: with PRE-084; cited from earlier work
Sig1R = conditions: with (+)-SKF-10,047; cited from earlier work

Sequence of Sig1 receptor [Sig1R]/binding immunoglobulin protein (BiP) (Q99720 whole entry): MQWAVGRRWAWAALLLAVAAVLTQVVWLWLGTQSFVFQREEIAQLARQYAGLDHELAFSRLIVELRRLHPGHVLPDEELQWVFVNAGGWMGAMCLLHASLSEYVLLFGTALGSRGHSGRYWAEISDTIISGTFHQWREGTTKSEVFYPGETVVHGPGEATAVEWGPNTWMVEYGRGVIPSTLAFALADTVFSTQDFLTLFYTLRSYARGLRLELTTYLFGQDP

COc1ccc2c(c1)[C@]13CCCC[C@@H]1[C@H](C2)N(C)CC3 [dextromethorphan]
KCl concentration necessary to initiate spreading depolarization (SD threshold) ([1]; KCl model): raising the spreading depolarization threshold

CN1CC2c3ccccc3Oc3ccc(Cl)cc3C2C1 (stereo not drawn) [asenapine]
effect of multi-5-HT receptor antagonist on protective effects of fenfluramine ([1]; KCl model, asenapine added to fenfluramine): did not affect

NCCc1c[nH]c2ccc(O)cc12 [serotonin, 5-hydroxytryptamine]
GABA spontaneous inhibitory postsynaptic currents [2]: increase

CCNC(C)Cc1cccc(C(F)(F)F)c1 (stereo not drawn) [fenfluramine, 3-trifluoromethyl-N-ethylamphetamine]
cardiac adverse effects with chronic use ([3]; chronic use at doses of 60 to 120 mg, some patients): cardiac valve abnormalities or pulmonary hypertension | anticonvulsant/antiseizure activity ([3]; low dose, Dravet Syndrome and Lennox Gastaut syndrome): anticonvulsant/antiseizure activity | time to onset of spreading depolarization ([4]; 0% oxygen and 0 mM glucose): non-significant difference | time to onset of spreading depolarization ([4]; 0% oxygen and 2 mM glucose): significant increase in time to onset | effect on SD under anoxic conditions (AD) ([4]; anoxic conditions): positive effect | Sig1R/BiP dissociation induced by the Sig1R agonist PRE-084 [5]: potentiated | (+)-SKF-10,047-induced increase in the twitch contraction amplitude (Sig1R): potentiated | GABA spontaneous inhibitory postsynaptic currents [2]: increase | protective effect of fenfluramine with addition of a 5-HT4 antagonist ([1]; KCl model, 5-HT4 antagonist added): only slightly diminished | KCl concentration necessary to initiate spreading depolarization (SD threshold) ([1]; KCl model): raising the KCl concentration necessary to initiate spreading depolarization | additivity or synergism on spreading depolarization threshold ([1]; fenfluramine with added serotonin): lack of additivity or synergism | fenfluramine's effects on spreading depolarization under blockade of the GABA receptors ([1]; with blockade of the GABA receptors): does not abolish
